Results published in patent publication US10376520B2, “Methods for the treatment of cardiovascular disorders” (Galapagos NV, priority 2015, dated 2019).

Test system: RA patients
Assay: LDL determination, Study 1 (RA patients, add-on to MTX)
Assay type: in vivo, human
Details: for [LDL] Mean CFB / [LDL] Median CFB: Study 1 12 weeks results
Method: Double-blind, placebo-controlled add on study in subjects with moderately to severely active RA who have an inadequate response to methotrexate (MTX) (oral or parenteral).
595 subjects randomized to one of 6 dose regimens of Compound 1 (dosed as a [Compound 1:HCl:3H2O]) (3 dose levels administered either once or twice daily) or placebo on top of each subject's stable dose of MTX.
Compound 1 (dosed as a [Compound 1:HCl:3H2O]) is dosed for twelve weeks once daily (q.d.) (50 mg, 100 mg or 200 mg) or twice daily (b.i.d.) (25 mg, 50 mg or 100 mg); or placebo.
At Week 12, the subjects on placebo who have not achieved 20% improvement in swollen joint count (SJC66) and tender joint count (TJC68) are re-randomized automatically to receive Compound 1 (dosed as a [Compound 1:HCl:3H2O]) either at 100 mg q.d. or 50 mg b.i.d. doses in a blinded fashion; subjects on 50 mg q.d. who have not achieved 20% improvement in SJC66 and TJC68 will be assigned to 100 mg q.d. and subjects on 25 mg b.i.d. that have not achieved a 20% improvement in SJC66 and TJC68 will be assigned to 50 mg b.i.d. Subjects who switch treatment at week 12 are handled as if they discontinued at week 12 for the purpose of statistical analysis, whereas subjects in the other groups will maintain their randomized treatment until Week 24.
The determination of [LDL]-cholesterol is made using an automated method taking advantage of the selective micellary solubilization of [LDL]-cholesterol by a nonionic detergent and the interaction of a sugar compound and lipoproteins (VLDL and chylomicrons).
When a detergent is included in the enzymatic method for cholesterol determination (cholesterol esterase, cholesterol oxidase coupling reaction), the relative reactivities of cholesterol in the lipoprotein fractions increase in this order: [HDL]<chylomicrons <VLDL <[LDL]. In the presence of Mg^2+, a sugar compound markedly reduces the enzymatic reaction of the cholesterol measurement in VLDL and chylomicrons. The combination of a sugar compound with detergent enables the selective determination of [LDL]-cholesterol in serum. (Friedewald et al., 1972; Rifai et al., 1992)
Homogeneous enzymatic colorimetric assay.
In the presence of peroxidase, the hydrogen peroxide generated reacts with 4-aminoantipyrine and Sodium N-(2-hydroxy-3-sulfopropyl)-3,5-dimethoxyaniline (HSDA) to form a purple-blue dye.
The color intensity of this dye is directly proportional to the cholesterol concentration and is measured photometrically.
Human serum and plasma samples [LDL] determination was done on a Roche/Hitachi Cobas c 701/702 system which automatically calculate the analyte concentration of each sample. Samples containing precipitates are centrifuged before performing the assay.

O=C(Nc1nc2cccc(-c3ccc(CN4CCS(=O)(=O)CC4)cc3)n2n1)C1CC1 [Compound 1, cyclopropanecarboxylic acid {5-[4-(1,1-dioxo-thiomorpholin-4-ylmethyl)-phenyl]-[1,2,4]triazolo[1,5-a]pyridin-2yl}-amide]
[LDL] Mean percentage CFB - 24 weeks results (25 mg b.i.d continued over 24 weeks, week 1): 2.79% | [LDL] Mean percentage CFB - 24 weeks results (25 mg b.i.d continued over 24 weeks, week 2): 3.88% | [LDL] Mean percentage CFB - 24 weeks results (25 mg b.i.d continued over 24 weeks, week 4): 4.15% | [LDL] Mean percentage CFB - 24 weeks results (25 mg b.i.d continued over 24 weeks, week 8): 3.83% | [LDL] Mean percentage CFB - 24 weeks results (25 mg b.i.d continued over 24 weeks, week 12): 7.21% | [LDL] Mean percentage CFB - 24 weeks results (25 mg b.i.d continued over 24 weeks, week 16): 6.54% | [LDL] Mean percentage CFB - 24 weeks results (25 mg b.i.d continued over 24 weeks, week 20): 7.42% | [LDL] Mean percentage CFB - 24 weeks results (25 mg b.i.d continued over 24 weeks, week 24): 8.14% | [LDL] Mean percentage CFB - 24 weeks results (50 mg b.i.d. continued over 24 weeks, week 1): 4.19% | [LDL] Mean percentage CFB - 24 weeks results (50 mg b.i.d. continued over 24 weeks, week 2): 3.43% | [LDL] Mean percentage CFB - 24 weeks results (50 mg b.i.d. continued over 24 weeks, week 4): 7.11% | [LDL] Mean percentage CFB - 24 weeks results (50 mg b.i.d. continued over 24 weeks, week 8): 4.75% | [LDL] Mean percentage CFB - 24 weeks results (50 mg b.i.d. continued over 24 weeks, week 12): 2.33% | [LDL] Mean percentage CFB - 24 weeks results (50 mg b.i.d. continued over 24 weeks, week 16): 5.78% | [LDL] Mean percentage CFB - 24 weeks results (50 mg b.i.d. continued over 24 weeks, week 20): 7.08% | [LDL] Mean percentage CFB - 24 weeks results (50 mg b.i.d. continued over 24 weeks, week 24): 8.29% | [LDL] Mean percentage CFB - 12 weeks results (50 mg q.d. (N = 82), week 1): 0% | [LDL] Mean percentage CFB - 12 weeks results (50 mg q.d. (N = 82), week 2): 1% | [LDL] Mean percentage CFB - 12 weeks results (50 mg q.d. (N = 82), week 4): 0% | [LDL] Mean percentage CFB - 12 weeks results (50 mg q.d. (N = 82), week 8): 3% | [LDL] Mean percentage CFB - 12 weeks results (50 mg q.d. (N = 82), week 12): 6% | [LDL] Mean percentage CFB - 24 weeks results (50 mg q.d. continued over 24 weeks, week 1): 0.26% | [LDL] Mean percentage CFB - 24 weeks results (50 mg q.d. continued over 24 weeks, week 2): −0.24% | [LDL] Mean percentage CFB - 24 weeks results (50 mg q.d. continued over 24 weeks, week 4): 0.35% | [LDL] Mean percentage CFB - 24 weeks results (50 mg q.d. continued over 24 weeks, week 8): 3.58% | [LDL] Mean percentage CFB - 24 weeks results (50 mg q.d. continued over 24 weeks, week 12): 6.67% | [LDL] Mean percentage CFB - 24 weeks results (50 mg q.d. continued over 24 weeks, week 16): 6.70% | [LDL] Mean percentage CFB - 24 weeks results (50 mg q.d. continued over 24 weeks, week 20): 6.29% | [LDL] Mean percentage CFB - 24 weeks results (50 mg q.d. continued over 24 weeks, week 24): 6.05% | [LDL] Mean percentage CFB - 24 weeks results (100 mg b.i.d. continued over 24 weeks, week 1): 8.14% | [LDL] Mean percentage CFB - 24 weeks results (100 mg b.i.d. continued over 24 weeks, week 4): 7.69% | [LDL] Mean percentage CFB - 24 weeks results (100 mg b.i.d. continued over 24 weeks, week 8): 13.14% | [LDL] Mean percentage CFB - 24 weeks results (100 mg b.i.d. continued over 24 weeks, week 12): 11.86% | [LDL] Mean percentage CFB - 24 weeks results (100 mg b.i.d. continued over 24 weeks, week 16): 9.44% | [LDL] Mean percentage CFB - 24 weeks results (100 mg b.i.d. continued over 24 weeks, week 20): 7.71% | [LDL] Mean percentage CFB - 24 weeks results (100 mg b.i.d. continued over 24 weeks, week 24): 12.88% | [LDL] Mean percentage CFB - 12 weeks results (100 mg q.d. (N = 85), week 1): 5% | [LDL] Mean percentage CFB - 12 weeks results (100 mg q.d. (N = 85), week 2): 2% | [LDL] Mean percentage CFB - 12 weeks results (100 mg q.d. (N = 85), week 4): 5% | [LDL] Mean percentage CFB - 12 weeks results (100 mg q.d. (N = 85), week 8): 4% | [LDL] Mean percentage CFB - 12 weeks results (100 mg q.d. (N = 85), week 12): 6% | [LDL] Mean percentage CFB - 24 weeks results (100 mg q.d. continued over 24 weeks, week 1): 5.08% | [LDL] Mean percentage CFB - 24 weeks results (100 mg q.d. continued over 24 weeks, week 2): 1.97% | [LDL] Mean percentage CFB - 24 weeks results (100 mg q.d. continued over 24 weeks, week 4): 5.31% | [LDL] Mean percentage CFB - 24 weeks results (100 mg q.d. continued over 24 weeks, week 8): 3.51% | [LDL] Mean percentage CFB - 24 weeks results (100 mg q.d. continued over 24 weeks, week 12): 5.69% | [LDL] Mean percentage CFB - 24 weeks results (100 mg q.d. continued over 24 weeks, week 16): 0.89% | [LDL] Mean percentage CFB - 24 weeks results (100 mg q.d. continued over 24 weeks, week 20): 1.19% | [LDL] Mean percentage CFB - 24 weeks results (100 mg q.d. continued over 24 weeks, week 24): 2.66% | [LDL] Mean percentage CFB - 12 weeks results (200 mg q.d. (N = 86), week 1): 6% | [LDL] Mean percentage CFB - 12 weeks results (200 mg q.d. (N = 86), week 2): 6% | [LDL] Mean percentage CFB - 12 weeks results (200 mg q.d. (N = 86), week 4): 6% | [LDL] Mean percentage CFB - 12 weeks results (200 mg q.d. (N = 86), week 8): 8% | [LDL] Mean percentage CFB - 12 weeks results (200 mg q.d. (N = 86), week 12): 8% | [LDL] Mean percentage CFB - 24 weeks results (200 mg q.d. continued over 24 weeks, week 1): 6.34% | [LDL] Mean percentage CFB - 24 weeks results (200 mg q.d. continued over 24 weeks, week 2): 5.81% | [LDL] Mean percentage CFB - 24 weeks results (200 mg q.d. continued over 24 weeks, week 4): 5.97% | [LDL] Mean percentage CFB - 24 weeks results (200 mg q.d. continued over 24 weeks, week 8): 7.93% | [LDL] Mean percentage CFB - 24 weeks results (200 mg q.d. continued over 24 weeks, week 12): 7.96% | [LDL] Mean percentage CFB - 24 weeks results (200 mg q.d. continued over 24 weeks, week 16): 7.99% | [LDL] Mean percentage CFB - 24 weeks results (200 mg q.d. continued over 24 weeks, week 20): 8.85% | [LDL] Mean percentage CFB - 24 weeks results (200 mg q.d. continued over 24 weeks, week 24): 7.78% | [LDL] Mean percentage CFB - 12 weeks results (2 x 25 mg b.i.d. (N = 86), week 1): 3% | [LDL] Mean percentage CFB - 12 weeks results (2 x 25 mg b.i.d. (N = 86), week 2): 4% | [LDL] Mean percentage CFB - 12 weeks results (2 x 25 mg b.i.d. (N = 86), week 4): 3% | [LDL] Mean percentage CFB - 12 weeks results (2 x 25 mg b.i.d. (N = 86), week 8): 2% | [LDL] Mean percentage CFB - 12 weeks results (2 x 25 mg b.i.d. (N = 86), week 12): 6% | [LDL] Mean percentage CFB - 12 weeks results (2 x 50 mg b.i.d. (N = 85), week 1): 4% | [LDL] Mean percentage CFB - 12 weeks results (2 x 50 mg b.i.d. (N = 85), week 2): 3% | [LDL] Mean percentage CFB - 12 weeks results (2 x 50 mg b.i.d. (N = 85), week 4): 7% | [LDL] Mean percentage CFB - 12 weeks results (2 x 50 mg b.i.d. (N = 85), week 8): 5% | [LDL] Mean percentage CFB - 12 weeks results (2 x 50 mg b.i.d. (N = 85), week 12): 2% | [LDL] Mean percentage CFB - 12 weeks results (2 x 100 mg b.i.d. (N = 84), week 1): 8% | [LDL] Mean percentage CFB - 12 weeks results (2 x 100 mg b.i.d. (N = 84), week 2): 6% | [LDL] Mean percentage CFB - 12 weeks results (2 x 100 mg b.i.d. (N = 84), week 4): 8% | [LDL] Mean percentage CFB - 12 weeks results (2 x 100 mg b.i.d. (N = 84), week 8): 13% | [LDL] Mean percentage CFB - 12 weeks results (2 x 100 mg b.i.d. (N = 84), week 12): 12% | [LDL] Mean CFB (50 mg q.d., week 1): -0.01 mmol/L | [LDL] Median CFB (50 mg q.d., week 1): -0.01 mmol/L | [LDL] Mean CFB (50 mg q.d., week 2): 0.02 mmol/L | [LDL] Median CFB (50 mg q.d., week 2): 0.02 mmol/L | [LDL] Mean CFB (50 mg q.d., week 4): 0.01 mmol/L | [LDL] Median CFB (50 mg q.d., week 4): -0.01 mmol/L | [LDL] Mean CFB (50 mg q.d., week 8): 0.06 mmol/L | [LDL] Median CFB (50 mg q.d., week 8): 0.07 mmol/L | [LDL] Mean CFB (50 mg q.d., week 12): 0.14 mmol/L | [LDL] Median CFB (50 mg q.d., week 12): 0.13 mmol/L | [LDL] Mean CFB (100 mg q.d., week 1): 0.11 mmol/L | [LDL] Median CFB (100 mg q.d., week 1): 0.1 mmol/L | [LDL] Mean CFB (100 mg q.d., week 2): 0.01 mmol/L | [LDL] Median CFB (100 mg q.d., week 2): 0.02 mmol/L | [LDL] Mean CFB (100 mg q.d., week 4): 0.13 mmol/L | [LDL] Median CFB (100 mg q.d., week 4): 0.13 mmol/L | [LDL] Mean CFB (100 mg q.d., week 8): 0.03 mmol/L | [LDL] Median CFB (100 mg q.d., week 8): 0.05 mmol/L | [LDL] Mean CFB (100 mg q.d., week 12): 0.13 mmol/L | [LDL] Median CFB (100 mg q.d., week 12): 0.13 mmol/L | [LDL] Mean CFB (200 mg q.d., week 1): 0.16 mmol/L | [LDL] Median CFB (200 mg q.d., week 1): 0.16 mmol/L
